Consider 3 molecules from US20210177856A1, “USE OF ATR INHIBITORS IN COMBINATION WITH PARP INHIBITORS” (Repare Therapeutics Inc., priority 2019, published 2021).

Experiment [1] relates to 5637 RNASEH2B+/+ cells. Put plainly: ZIP synergy matrix and 7-day CTG viability assay, 5637 RNASEH2B+/+ cells. In kind it is cell-based. The note with it: combination of Compound 121 and niraparib, FIG. 1A. As for the experimental part:
(§1) FIG. 1A is chart showing ZIP synergy score matrix in RNASEH2B+/+ cells. […] Score of >10 indicates synergy, while <(−10) indicates antagonism. Dashed lines represent the IC50 value of each compound in the respective cell line. […] Viability was measured with a 7-day CTG assay. Mean of three independent experiments±SD. Solid lines, non-linear least squares fit to a four-parameter dose-response model. IC50 values are indicated below panels. […] Viability was measured with a 7-day CTG assay. Mean of three technical replicates±SD. Solid lines, non-linear least squares fit to a four-parameter dose-response model. IC50 values are indicated below panels.

Experiment [2] relates to 5637 RNASEH2B−/− cells. Briefly: ZIP synergy matrix and 7-day CTG viability assay, 5637 RNASEH2B−/− cells. In kind it is cell-based. To be noted: for concentration at maximum synergy, lower in RNASEH2B−/− than in RNASEH2B+/+ cells: FIGS. 1A and 1B. As for the experimental part:
as §1, with “1B” for “1A”, “RNASEH2B−/−” for “RNASEH2B+/+”

The test system of experiment [3] is MIAPACA2 ATM−/− cells. Briefly: 48 h treatment, CTG viability at day 6, MIAPACA2 ATM−/− cells. Type of experiment: cell-based. The note with it: 48 h treatment with combination of niraparib and Compound 121; MIAPACA2 ATM CRISPR knockout; FIGS. 6A and 6B. As for the experimental part:
(§2) Cells were treated for 48 h, followed by removal of the compounds and growth in fresh media. Viability was measured at day 6 by a CTG assay. Mean of three technical replicates±SD. Solid lines, non-linear least squares fit to a four-parameter dose-response model. IC50 values are indicated below panels. […] Cells were treated for 48 h, followed by removal of the compounds and growth in fresh media. Viability was measured at day 6 by a CTG assay. Mean of three technical replicates±SD. Solid lines, non-linear least squares fit to a four-parameter dose-response model. IC50 values are indicated below panels.

For experiment [4], the system named is RPE1-hTERT TP53−/− CDK12−/− cells. Put plainly: 48 h treatment, CTG viability at day 6, RPE1-hTERT TP53−/− CDK12−/− cells. Type of experiment: cell-based. The note with it: 48-hr treatment with combination of Compound 121 and niraparib; FIGS. 7A and 7B. On the procedure: as §2, with “independent experiments±SD.” for “technical replicates±SD.”
Experiment [5] has as its system DLD1 BRCA2−/− cells. Briefly: 48 h treatment, CTG viability, DLD1 BRCA2−/− cells. Type of experiment: cell-based. To be noted: 48-hr treatment with combination of Compound 121 and talazoparib; FIGS. 8A and 8B. On the procedure:
FIG. 8A is a chart showing dose response curves of DLD1 BRCA2+/+ cells to talazoparib in the absence (DMSO) or presence of indicated concentrations of Compound 121. Cells were treated for 48 h, followed by removal of the compounds and growth in fresh media. Viability was measured at day 6 by a CTG assay. Mean of three independent experiments±SD. Solid lines, non-linear least squares fit to a four-parameter dose-response model. IC50 values are indicated below panels.
FIG. 8B is a chart showing dose response curves of DLD1 BRCA2−/− cells to talazoparib in the absence (DMSO) or presence of indicated concentrations of Compound 121. Cells were treated for 48 h, followed by removal of the compounds and growth in fresh media. Viability was measured at day 9 by a CTG assay. Mean of three independent experiments±SD. Solid lines, non-linear least squares fit to a four-parameter dose-response model. IC50 values are indicated below panels.

In experiment [6] the test system is ALT-positive (ALT+) cancer cell lines. Briefly: Cell viability of ALT+ and ALT− cancer cell line panels. Type of experiment: cell-based. To be noted: combination of low-nanomolar doses of Compound 121 and talazoparib; five ALT+ lines; FIGS. 9A and 9B. On the procedure:
FIG. 9A is a chart showing cell viability for ALT+ and ALT− cell lines that were untreated, treated with talazoparib alone, treated with compound 121 alone, or treated with a combination of talazoparib and compound 121.
FIG. 9B is a chart showing the cell viability for ALT+ and ALT− cells that were treated with a combination of talazoparib and compound 121.

Experiment [7] deals with RPE1-hTERT TP53−/− RNASEH2B−/− cells. Put plainly: 6-day CTG viability assay, RPE1-hTERT TP53−/− RNASEH2B−/− cells. Type of experiment: cell-based. The note with it: Compound 43 combined with niraparib; compared with Compound 121 plus niraparib; FIGS. 3A and 3B. On the procedure:
Viability was measured with a 6-day CTG assay. Mean of three independent experiments±SD. Solid lines, non-linear least squares fit to a four-parameter dose-response model. IC50 values are indicated below panels. […] Viability was measured with a 6-day CTG assay. Mean of three independent experiments±SD. Solid lines, non-linear least squares fit to a four-parameter dose-response model. IC50 values are indicated below panels.

The subject of experiment [8] is 5637 RNASEH2B+/+ and −/− cells. To be noted: FIG. 5B. On the procedure:
FIG. 5A is a scheme showing the experimental design. 5637 cells were treated with niraparib alone or niraparib combined with an IC50 concentration of Compound 121 for indicated times with or without removal of compounds. Cell viability was analyzed by a CellTiter Glo (CTG) assay 168 h post treatment.
FIG. 5B is a chart showing apparent niraparib IC50 values in 5637 RNASEH2B+/+ and −/− cells from experiments described in FIG. 5A. Values were obtained by fitting mean data from three independent experiments to a four-parameter dose-response model. Error bars, 95% confidence interval (CI).
To guide the combined dosing of Compound 121 and niraparib in RNASEH2B-deficient tumor cells, a continuous 168 h concomitant treatment of 5637 RNASEH2B+/+ and −/− cells with both compounds was compared to either a 48 or 72 h treatment followed by removal of compounds and growth in drug-free media (FIG. 5A).

Setting [9] is: combination of Compound 121 and niraparib, 5637 cells.

Structures are written as SMILES.

For the molecule `C[C@@H]1COCCN1c1cc([C@@]2(O)C[C@H]3CC[C@@H](C2)O3)c2cnn(-c3cc[nH]n3)c2n1` [Compound 121], the “synergy with niraparib (ZIP synergy score)” value is on record as “strongly synergized” in experiment [1]; “strongly synergized” in experiment [2] (combination of Compound 121 and niraparib, 5637 RNASEH2B−/− cells, FIG. 1B). Further, in experiment [2] (Compound 121 combined with talazoparib, 5637 cells, 7-day CTG, FIGS. 4A and 4B), the “sensitization of RNASEH2B-deficient cells” value is listed as “strong sensitization”. Also, the “concentration at maximum synergy, lower in RNASEH2B−/− than in RNASEH2B+/+ cells” value in experiment [2] (setting [9]) is on record as “ca. three-fold”. Further, in experiment [3], the “synergistic sensitization of ATM−/− clone” value was above 300 ×. The “sensitization of isogenic cell line lacking CDK12” value in experiment [4] is given as “synergistically sensitized”. The “sensitization of isogenic cell line lacking BRCA2” value in experiment [5] is on record as “synergistically sensitized”. Moreover, in experiment [6], the “sensitivity of ALT+ panel relative to ALT− control panel” value is recorded as “more sensitive”.
In the case of `C[C@@H]1COCCN1c1cc(-c2ccccc2S(C)(=O)=O)c2cnn(-c3cc[nH]n3)c2n1` [Compound 43], the “sensitization of RNASEH2B-deficient cells” value in experiment [7] is given as “sensitized RNASEH2B-deficient cells to a similar extent”.
For the molecule `NC(=O)c1cccc2cn(-c3ccc([C@@H]4CCCNC4)cc3)nc12` [niraparib, reference compound], the “concentration at maximum synergy, lower in RNASEH2B−/− than in RNASEH2B+/+ cells” value in experiment [2] (setting [9]) is listed as “ca. ten-fold”. For the same molecule, the “shift of apparent IC50 of niraparib from RNASEH2B+/+ to RNASEH2B−/− cells” value in experiment [2] (in presence of Compound 121, 5637 cells, 7-day CTG, FIGS. 2A and 2B) is given as at most 200 fold. Further, in experiment [8] (in presence of Compound 121 (IC50 concentration), dosed continuously for 168 h), the “apparent IC50 value of niraparib” value was “decreased”. In experiment [8] (with Compound 121, 72 or 48 h treatment then drug-free media vs 168 h continuous), the “difference in apparent IC50 values of niraparib when treatment shortened” value is given as “No significant difference”.
